The text below walks through data of patent US20260193265A1, “Phyllochlorin analogues suitable for use in photodynamic therapy (PDT)” (RMW CHO Group Limited, priority 2022, published 2026).

What is called IC90 is the point of the concentration-response curve where the effect stands at 90%.

In data set [1] the test system is Human ovarian cancer cell line SKOV3.
The test system is the same in data set [2]. Put plainly: Phototoxicity in SKOV3 cells after 652 nm laser activation (AlamarBlue viability). It counts as cell-based. The following applies: for range of phototoxicity IC90 values in vitro: result in words. Here is the method: Samples were stored at 4° C. protected from light.
All data are shown as mean±SD (where appropriate).
To test for phototoxicity, cells incubated with phyllochlorin analogues (0-10 μM in DMSO) had culture media replaced after 24 hours (as above) and were then exposed to a 652 nm laser (Invion) with laser density at 50 mW/cm^2 for 5 mins (total 15 J/cm^2). Following activation, cells were cultured for a further 24 hours. Media was then replaced with fresh media containing AlamarBlue, and % viable cells remaining assessed as above. Controls included cells treated with phyllochlorin analogues but not activated by laser light; cells without phyllochlorin analogue treatment but with laser light; and untreated controls. All measurements were made in quadruplicate.

The test system is the same in data set [3]. Put plainly: Inherent cytotoxicity (dark toxicity) in SKOV3 cells (AlamarBlue viability). The following applies: 24 hours incubation, no light, AlamarBlue 6 hours.
Protocol: Photosensitizers (e.g. phyllochlorin analogue, chlorin e4 disodium (provided by Advanced Molecular Technologies, Scoresby) or Talaporfin sodium (purchased from Focus Bioscience cat #HY-16477-5MG)) were resuspended in 100% dimethylsulfoxide (DMSO) at a concentration of 5.5 mM. Samples were stored at 4° C. protected from light.
For in vitro experiments, photosensitizers (stock solution 5.5 mM in 100% DMSO) were diluted 1:100 in concentrated excipient solution (final 55 μM photosensitizer in 10% w/v Kollidon-12, 42.4% w/v polysorbate 80, 0.6% w/v citric acid anhydrous, 40% w/v ethanol, 1.0% DMSO). Serial dilutions were prepared in cell culture media (Dulbecco's Modified Eagle Medium/Nutrient Mixture F-12 (DMEM/F-12)) supplemented with 10% v/v Fetal Bovine Serum, 100 U/mL penicillin, 100 μg/mL streptomycin and the same excipient solution at a constant 1:55 dilution.
Human ovarian cancer cell line SKOV3 (ATCC #HTB-77) was maintained in Dulbecco's Modified Eagle Medium/Nutrient Mixture F-12 (DMEM/F-12), supplemented with 10% v/v Fetal Bovine Serum, 100 U/mL penicillin and 100 μg/mL streptomycin. Monolayer cultures were grown in a humidified incubator at 37° C. with 5% CO2. Once cells had reached ~80% confluence, spent media was replaced with media containing photosensitizer at the required concentration and cells were incubated for the desired period of time to allow photosensitizer uptake.
All data were analysed using GraphPad PRISM v8.3.1 (549) (GraphPad Software, CA). Spectral absorbance and viability measurements were normalized in the range 0-100%, with a minimum of 0 and a maximum value determined from the dataset. Dose response was determined using a sigmoidal four-point non-linear regression with variable slope, and IC10 or IC90 calculated for each compound. All data are shown as mean±SD (where appropriate).
SKOV3 cells were seeded in 96-well black wall plates (Greiner #655090) at a cell density of 5000 cells in 100 μl culture medium per well. On reaching ~60% confluence, media was aspirated and replaced with fresh media containing the relevant phyllochlorin analogue from 0-100 μM in DMSO. Cells were incubated for a further 24 hours, allowing uptake of phyllochlorin analogues.
To test for inherent cytotoxicity (i.e. “dark toxicity”) of the phyllochlorin analogues, the culture media was replaced after 24 hours with fresh media containing 10% (v/v) AlamarBlue Cell Viability Reagent (ThermoFisher) and cells incubated at 37° C. for 6 hours. Untreated cells were used as a control. Fluorescence (Ex 555 nm/Em 596 nm) was measured using a Cytation 3 Cell Imaging Multi-Mode Reader (Biotek), and cytotoxicity assessed according to the % viable cells remaining. All measurements were made in quadruplicate.
The phototoxicity and inherent cytotoxicity (i.e. “dark toxicity”) of several phyllochlorin analogues were assessed as previously using SKOV3 ovarian cancer cells. For comparative purposes, phyllochlorin analogues were compared against chlorin e4 disodium and Talaporfin sodium, a clinically approved photosensitizer used in the photodynamic treatment of lung cancers. Phototoxicity IC90 values and dark toxicity IC10 values were calculated using a log[inhibitor]-vs normalized response dose curve with variable slope, using the formula Y=100/(1+(IC90/X)^HillSlope (phototoxicity IC90)) or Y=100/(1+(IC10/X)^HillSlope (dark toxicity IC10)).
[4] abbreviates: Homo sapiens, SK-OV-3, light or radiation study, 652 nm laser, read-out: apparent phototoxicity IC90.
Setting [5] is: Homo sapiens, SK-OV-3, light or radiation study, 24 hours uptake, 652 nm laser 50 mW/cm^2 for 5 mins (total 15 J/cm^2), viability 24 hours after activation, read-out: Phototoxicity μM (IC90).

Where a name gives a salt, the structure may show the parent alone. Read-outs that look alike come from different tables or passages of the source. A value given as a limit tells only on which side of the number the result lay.

Turning to `C=Cc1c(C)c2cc3nc(c(C)c4cc(C)c(cc5nc(cc1[nH]2)C(C)=C5CC)[nH]4)[C@@H](CCCSCCCS[C@@H]1O[C@H](CO)[C@@H](O)[C@H](O)[C@H]1O)[C@@H]3C` [Compound 4, (2S,3R,4S,5S,6R)-2-((3-((3-((7S,8S)-18-ethyl-2,5,8,12,17-pentamethyl-13-vinyl-7H,8H-porphyrin-7-yl)propyl)thio)propyl)thio)-6-(hydroxymethyl)tetrahydro-2H-pyran-3,4,5-triol], the “Dark toxicity μM (IC10)” value in data set [1] (human, 24 h) was 23.13 µM. Further, the 90% effect concentration (IC90) in data set [2] (setting [4]) was under 0.1 µM; in data set [2] (setting [5]) it was 0.07 µM.

In the case of `C=Cc1c(C)c2cc3nc(c(C)c4cc(C)c(cc5nc(cc1[nH]2)C(C)=C5CC)[nH]4)[C@@H](CCC[n+]1ccccc1)[C@@H]3C` [Compound 9, phyllochlorin 3-pyridiniumpropyl iodide], the concentration for an effect of 90% (IC90) in data set [2] (setting [5]) was 0.006 µM. The “Dark toxicity μM (IC10)” value in data set [3] came out at 4.91 µM.

Turning to `C=Cc1c(C)c2cc3nc(c(C)c4cc(C)c(cc5nc(cc1[nH]2)C(C)=C5CC)[nH]4)[C@@H](CCC[P+](c1ccccc1)(c1ccccc1)c1ccccc1)[C@@H]3C` [Compound 10, phyllochlorin 3-triphenylphosphoniumpropyl iodide], the concentration for an effect of 90% (IC90) in data set [2] (setting [5]) amounted to 0.003 µM. The “Dark toxicity μM (IC10)” value in data set [3] amounted to 4.52 µM.

`C=Cc1c(C)c2cc3nc(c(C)c4cc(C)c(cc5nc(cc1[nH]2)C(C)=C5CC)[nH]4)[C@@H](CCCO)[C@@H]3C` [Compound 1, 3-((7S,8S)-18-ethyl-2,5,8,12,17-pentamethyl-13-vinyl-7H,8H-porphyrin-7-yl)propan-1-ol]: the “Dark toxicity μM (IC10)” value in data set [1] (human, 24 h) was 46.10 µM. Moreover, in data set [2] (setting [5]), the IC90 came out at 0.12 µM.

On to `C=Cc1c(C)c2cc3nc(c(C)c4cc(C)c(cc5nc(cc1[nH]2)C(C)=C5CC)[nH]4)[C@@H](CCCS[C@@H]1O[C@H](CO)[C@@H](O)[C@H](O)[C@H]1O)[C@@H]3C` [Compound 5], for which the “Dark toxicity μM (IC10)” value in data set [1] (human, 24 h) amounted to 13.18 µM. Besides, the concentration for an effect of 90% (IC90) in data set [2] (setting [4]) was under 0.1 µM; in data set [2] (setting [5]), 0.05 µM.

With `C=Cc1c(C)c2cc3nc(c(CC(=O)N[C@@H](CC(=O)O)C(=O)O)c4[nH]c(cc5nc(cc1[nH]2)C(C)=C5CC)c(C)c4C(=O)O)[C@@H](CCC(=O)O)[C@@H]3C` [Talaporfin sodium, reference compound], the “Dark toxicity μM (IC10)” value in data set [1] (human, 24 h) came out at 11.10 µM. Besides, in data set [2], the “range of phototoxicity IC90 values in vitro” value is listed as “μM range”.

Regarding `C=Cc1c(C)c2cc3nc(c(C)c4cc(C)c(cc5nc(cc1[nH]2)C(C)=C5CC)[nH]4)[C@@H](CCCOC(C)=O)[C@@H]3C` [Compound 2, 3-((7S,8S)-18-ethyl-2,5,8,12,17-pentamethyl-13-vinyl-7H,8H-porphyrin-7-yl)propyl acetate], the “Dark toxicity μM (IC10)” value in data set [1] (human, 24 h) is 66.93 µM. Moreover, in data set [2] (setting [5]), the concentration for an effect of 90% (IC90) is 0.48 µM.

As to `C=Cc1c(C)c2cc3nc(c(C)c4cc(C)c(cc5nc(cc1[nH]2)C(C)=C5CC)[nH]4)[C@@H](CCCN)[C@@H]3C` [Compound 7, phyllochlorin 3-aminopropyl], the “Dark toxicity μM (IC10)” value in data set [1] (human, 24 h) is 11.55 µM. For the same molecule, the IC90 was under 0.1 µM in data set [2] (setting [4]) and 0.05 µM in data set [2] (setting [5]).

With `C=Cc1c(C)c2cc3nc(c(C)c4cc(C)c(cc5nc(cc1[nH]2)C(C)=C5CC)[nH]4)[C@@H](CCCNC(=O)[C@@H](N)C(C)C)[C@@H]3C` [Compound 8, phyllochlorin 3-aminopropyl-valine amide hydrochloride], in data set [1] (human, 24 h), the “Dark toxicity μM (IC10)” value amounted to 11.89 µM. Further, the values for the IC90 in data set [2] (setting [4]) and in data set [2] (setting [5]) were under 0.1 µM and 0.09 µM, respectively.

On to `C=Cc1c(C)c2cc3nc(c(C)c4[nH]c(cc5nc(cc1[nH]2)C(C)=C5CC)c(C)c4C(=O)O)[C@@H](CCC(=O)O)[C@@H]3C` [Chlorin e4 disodium, reference compound], for which the “Dark toxicity μM (IC10)” value in data set [1] amounted to 40.23 µM. In addition, in data set [2] (24 hours uptake, 652 nm laser 50 mW/cm^2 for 5 mins (total 15 J/cm^2), viability 24 hours after activation, read-out: Phototoxicity μM (IC90)), the IC90 was found to be 21.3 µM. Also, the “range of phototoxicity IC90 values in vitro” value in data set [2] is listed as “μM range”.
